“And” between values parts separate entries of the source, which are not always exact repeats. Equal entries are not always repeated. Where two headings read alike, the source gives them in different places.
Test: Pharmacokinetics study after separate oral administration in rats (HPLC-MS of plasma)
Format: in vivo, Sprague-Dawley rats
Conditions: for half-life: read-out: t1/2z
Protocol: A total of 15 SPF Sprague-Dawley rats (SD, male, 190–210 g) were provided by Sino-British Sippr/BK Lab Animal Company Ltd. (Shanghai, China). The rats were kept in standard conditions (22–26 °C; 40–60% relative humidity; 12 h light/dark cycle). Throughout the rearing period, the animals had access to food and water ad libitum. Animal experiments were conducted in accordance with the standard ethical guidelines of the Laboratory Animal Management Committee of Jiangsu Province (SYXK (SU) 2016-0011).
Following 1 week of adaptation, the rats were fasted for about 12 h before dosing, with free access to water. […] After administration of the first dose, blood samples were taken from the retro-orbital vein at 0, 5, 15, 30, 60, 90, 120, 180, 240, 360, 480, and 1,440 min and collected in heparinized tubes. The samples were centrifuged at 3,500 rpm for 10 min at 4 °C and the plasma was stored at −80 °C until analysis.
An Agilent 1,200 series HPLC system (Agilent Technologies, Waldbronn, Germany) equipped with a quaternary pump on-line degasser, auto-sampler and column oven, and an SL G1946D quadruple mass spectrometer (Agilent Technologies, Santa Clara, CA, USA) equipped with an electrospray ionization (ESI) source, were used for separation and detection. Data were acquired and analyzed using Agilent ChemStation Software Version A.01.00 (Agilent Technologies, Santa Clara, CA, USA).
The separation was carried out with an Amethyst C18-H column (150 × 4.6 mm, 5 μm, Sepax Technologies, Newark, DE, USA) with a guard column SB-C18 (10 × 4.6 mm, 5 μm, Phenomenex Technologies, Torrance, USA) at a constant temperature of 25 °C.
The mass spectra were acquired using ESI interfaced to a single quadrupole mass spectrometer. The ionization conditions were as follows: drying gas (N2) flow rate of 11 L/min, drying gas temperature of 350 °C, nebulizing gas (N2) pressure of 35 psi, capillary voltage of 3,500 V, quad temperature of 100 °C, and fragment voltage of 110 V. A series of m/z were monitored using a timed program according to the retention times and characteristic ions for the corresponding HPLC-MS peak obtained by scanning from m/z 100–1,000 in the standard sample.
Briefly, an aliquot of plasma sample (100 μL) was spiked with 5% formic acid (10 μL) in centrifuge tube. Subsequently, hydrochloric acid (2 mol/L, 10 μL) and IS solution (960.00 ng/mL, 20 μL) were added. Then ethyl acetate/n-butyl alcohol (1:1 v/v; 1,000 μL) was used to extract the components. The samples were then homogenized by vortex mixing and centrifuged for 10 min at 14,000 rpm. After centrifugation, 800 μL of supernatant was transferred to another centrifuge tube and the sample was evaporated to dryness. The residues were dissolved in 100 μL of methanol and centrifuged for 10 min at 12,000 rpm. 50 μL of the supernatant was transferred to the vial and an aliquot of 5 μL was injected into the HPLC-MS system for analysis.
DAS 2.0 (Chinese Pharmacological Association, Shanghai, China) was used to calculate the pharmacokinetic parameters using the non-compartment model, including the area under curve (AUC), mean residence time (MRT), half-life ( t1/2z), clearance rate (CL), maximum plasma concentration (Cmax), and time (Tmax). All results are expressed as mean ± standard deviation (SD). One way analysis of variance followed by […] was used for comparison of different groups using Graph pad prism 5 software. A p-value of <0.05 was considered statistically significant.

[1] = IQ group (oral IQ 50 mg/kg), rat plasma, labelled substance = analyte, individual rats No1-No5

For O=c1c(O[C@@H]2O[C@H](CO)[C@@H](O)[C@H](O)[C@H]2O)c(-c2ccc(O)c(O)c2)oc2cc(O)cc(O)c12 [IQ, Isoquercitrin], the Plasma concentrations (IQ group (oral IQ 50 mg/kg), 5 min, individual rats NO. 1-5) was 0.0934 µg/mL and 0.0774 µg/mL and 0.0493 µg/mL and 0.0335 µg/mL and 0.1108 µg/mL, the Plasma concentrations (IQ group (oral IQ 50 mg/kg), 15 min, individual rats NO. 1-5) was 0.3981 µg/mL and 0.2105 µg/mL and 0.1113 µg/mL and 0.0464 µg/mL and 0.3803 µg/mL and the Plasma concentrations (IQ group (oral IQ 50 mg/kg), 30 min, individual rats NO. 1-5) was 0.3658 µg/mL and 0.4136 µg/mL and 0.1507 µg/mL and 0.3866 µg/mL and 0.3886 µg/mL. The Plasma concentrations (IQ group (oral IQ 50 mg/kg), 60 min, individual rats NO. 1-5) was 0.1335 µg/mL and 0.1563 µg/mL and 0.1140 µg/mL and 0.0299 µg/mL and 0.2027 µg/mL, the Plasma concentrations (IQ group (oral IQ 50 mg/kg), 90 min, individual rats NO. 1-5) was 0.0372 µg/mL and 0.1114 µg/mL and 0.0310 µg/mL and 0.0260 µg/mL and 0.1543 µg/mL and the Plasma concentrations (IQ group (oral IQ 50 mg/kg), 120 min, individual rats NO. 1-5) was 0.0000 μg/mL (3×) and 0.0534 μg/mL and 0.0884 μg/mL. The Plasma concentrations (IQ group (oral IQ 50 mg/kg), 180 min, individual rats NO. 1-5) was 0.0000 µg/mL, the Plasma concentrations (IQ group (oral IQ 50 mg/kg), 240 min, individual rats NO. 1-5) was 0.0000 µg/mL and the Plasma concentrations (IQ group (oral IQ 50 mg/kg), 360 min, individual rats NO. 1-5) was 0.0000 µg/mL. For the same compound, the Plasma concentrations (IQ group (oral IQ 50 mg/kg), 480 min, individual rats NO. 1-5) was 0.0000 µg/mL, the Plasma concentrations (IQ group (oral IQ 50 mg/kg), 1440 min, individual rats NO. 1-5) was 0.0000 µg/mL and the “AUC(0-t)” value [1] was 307.8 ng·h/mL and 355.8 ng·h/mL and 150.6 ng·h/mL and 180.27 ng·h/mL and 439.42 ng·h/mL. The CLz/F [1] was 2565 mL/min/kg and 2104 mL/min/kg and 4792 mL/min/kg and 3572 mL/min/kg and 1528 mL/min/kg, the Cmax [1] was 398.1 ng/mL and 413.6 ng/mL and 150.7 ng/mL and 386.6 ng/mL and 388.6 ng/mL and the “MRT(0-t)” value [1] was 46.827 min and 41.112 min and 33.266 min and 48.488 min. The Tmax [1] was 30 min, the t1/2z [1] was 18.181 min and 30.631 min and 26.313 min and 87.922 min and 49.884 min and the “Detection in rat plasma” value (IQ group: oral IQ 50 mg/kg) was “could be detected in rat plasma”. The “Time until which the AUC could be accessed” value (IQ group: oral IQ 50 mg/kg) was 90 to 120 min, the CL (IQ group: oral IQ 50 mg/kg, rat plasma, mean ± SD, n = 5) was 2910 ± 1290 mL/min/kg and the concentration at 180 min (male, Sprague-Dawley, rat, plasma, oral, 50 mg/kg, IQ group (oral IQ 50 mg/kg), 180 min, individual rats NO. 1-5, read-out: Plasma concentrations) was 0 ng/mL. For the same compound, the concentration at 240 min (male, Sprague-Dawley, rat, plasma, oral, 50 mg/kg, IQ group (oral IQ 50 mg/kg), 240 min, individual rats NO. 1-5, read-out: Plasma concentrations) was 0 ng/mL, the concentration at 360 min (male, Sprague-Dawley, rat, plasma, oral, 50 mg/kg, IQ group (oral IQ 50 mg/kg), 360 min, individual rats NO. 1-5, read-out: Plasma concentrations) was 0 ng/mL and the concentration at 480 min (male, Sprague-Dawley, rat, plasma, oral, 50 mg/kg, IQ group (oral IQ 50 mg/kg), 480 min, individual rats NO. 1-5, read-out: Plasma concentrations) was 0 ng/mL. It also gave a concentration at 1440 min (male, Sprague-Dawley, rat, plasma, oral, 50 mg/kg, IQ group (oral IQ 50 mg/kg), 1440 min, individual rats NO. 1-5, read-out: Plasma concentrations) of 0 ng/mL, an MRT last (male, Sprague-Dawley, rat, plasma, po, 50 mg/kg, IQ group (oral IQ 50 mg/kg), rat plasma, labelled substance = analyte, individual rats No1-No5, read-out: MRT(0-t) (converted)) of 33.3 min and a Tmax (male, Sprague-Dawley, rat, plasma, po, 50 mg/kg, IQ group (oral IQ 50 mg/kg), rat plasma, labelled substance = analyte, individual rats No1-No5, read-out: Tmax (converted)) of 15 min. For the same compound, the AUC(0-t) (male, Sprague-Dawley, rat, plasma, po, 50 mg/kg, IQ group (oral IQ 50 mg/kg), rat plasma, labelled substance = analyte, mean of 5 rats, read-out: AUC(0-t) (converted)) was 287 ng·h/mL, the CL/F (male, Sprague-Dawley, rat, plasma, po, 50 mg/kg, IQ group (oral IQ 50 mg/kg), rat plasma, labelled substance = analyte, mean of 5 rats, read-out: CLz/F) was 2910 mL/min/kg and the Cmax (male, Sprague-Dawley, rat, plasma, po, 50 mg/kg, IQ group (oral IQ 50 mg/kg), rat plasma, labelled substance = analyte, mean of 5 rats, read-out: Cmax) was 348 ng/mL. The MRT last (male, Sprague-Dawley, rat, plasma, po, 50 mg/kg, IQ group (oral IQ 50 mg/kg), rat plasma, labelled substance = analyte, mean of 5 rats, read-out: MRT(0-t) (converted)) was 40.6 min, the Tmax (male, Sprague-Dawley, rat, plasma, po, 50 mg/kg, IQ group (oral IQ 50 mg/kg), rat plasma, labelled substance = analyte, mean of 5 rats, read-out: Tmax (converted)) was 27 min and the half-life (male, Sprague-Dawley, rat, plasma, po, 50 mg/kg, IQ group (oral IQ 50 mg/kg), rat plasma, labelled substance = analyte, mean of 5 rats) was 42.6 min. The AUC(0-t) (male, Sprague-Dawley, rat, plasma, po, 50 mg/kg, IQ group: oral IQ 50 mg/kg, rat plasma, mean ± SD, n = 5, read-out: AUC0−t (converted)) was 287 ng·h/mL, the Cmax (male, Sprague-Dawley, rat, plasma, po, 50 mg/kg, IQ group: oral IQ 50 mg/kg, rat plasma, mean ± SD, n = 5, read-out: Cmax) was 350 ± 110 ng/mL and the MRT last (male, Sprague-Dawley, rat, plasma, po, 50 mg/kg, IQ group: oral IQ 50 mg/kg, rat plasma, mean ± SD, n = 5, read-out: MRT0−t (converted)) was 40.6 min. The Tmax (male, Sprague-Dawley, rat, plasma, po, 50 mg/kg, IQ group: oral IQ 50 mg/kg, rat plasma, mean ± SD, n = 5, read-out: Tmax (converted)) was 27 min and the half-life (male, Sprague-Dawley, rat, plasma, po, 50 mg/kg, IQ group: oral IQ 50 mg/kg, rat plasma, mean ± SD, n = 5) was 42.6 ± 27.9 min.

From PMC6440464 (PeerJ, 2019)
